Where two headings read alike, the source gives them in different places.
Assays:
in vitro = type: cell-based; conditions: human, HepG2 or HepG2.117 cells, mean value
Outline: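 Luminescent ATP quantitation served as the viability endpoint following a 3- or 4-day incubation with test compounds.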

[1] = system: HBV (HepG2.117 cell line, inducibly HBV producing); assay: Anti-HBV activity: intracellular HBV DNA by real-time PCR in HepG2.117 cells after 3 days of treatment; type: cell-based, hepatitis B virus
Outline: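 Inducible HBV-producing HepG2.117 line (Tet-off); 3-day exposure to serially diluted compound after induction; real-time PCR of intracellular viral DNA.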

[2] = 3-days incubation (unmarked values), ATPlite
[3] = Hepatitis B virus, HepG2.117, 72 h, HepG2.117 cells, 3 days of treatment, intracellular HBV DNA by real-time PCR; mean value; read-out: EC50 (μM, mean value)
[4] = ATPlite, 3-days incubation (not marked with *)
[5] = Hepatitis B virus, HepG2.117, 72 h, HepG2.117 cells, intracellular HBV DNA by real-time PCR, 3 days of treatment, mean value; read-out: EC50 (μM, mean value)

SMILES	CC50 at 3 days (in vitro; [2])	EC50 [1, 3]	CC50 at 3 days (in vitro; [4])	EC50 [1, 5]	CC50 at 3 days (in vitro; 3-days incubation (unmarked values), ATPlite viability)
CNC(=O)c1ccc(-n2c(NCc3c[nH]c4ccc(OC)cc34)nc3c(c2=O)C[C@@H](C)N(C(=O)c2ccc(Cl)c(Cl)c2)C3)cc1 [Compound C275, 4-[(6R)-7-(3,4-dichlorobenzoyl)-2-{[(5-methoxy-1H-indol-3-yl)methyl]amino}-6-methyl-4-oxo-5,6,7,8-tetrahydropyrido[3,4-d]pyrimidin-3(4H)-yl]-N-methylbenzamide]	> 50 µM	1.58 µM	–	–	–
C[C@H](Nc1nc2c(c(=O)n1-c1ccc(-n3cccn3)cc1)C[C@@H](C)N(C(=O)c1ccc(Cl)c(Cl)c1)C2)c1ccc(OC(F)(F)F)cc1 (single isomer, unassigned) [Compound C463b]	–	–	> 50 µM	7.21 µM	–
CNC(=O)c1ccc(-n2c(N[C@H](C)c3cccnc3OC)nc3c(c2=O)C[C@@H](C)N(C(=O)c2ccc(Cl)c(Cl)c2)C3)cc1 (single isomer, unassigned) [Compound C285, 4-[(6R)-7-(3,4-dichlorobenzoyl)-2-{[(1*R)-1-(2-methoxypyridin-3-yl)ethyl]amino}-6-methyl-4-oxo-5,6,7,8-tetrahydropyrido[3,4-d]pyrimidin-3(4H)-yl]-N-methylbenzamide]	27.6 µM	0.37 µM	–	–	–
CNC(=O)c1ccc(-n2c(N[C@H]3CCCC3(C)C)nc3c(c2=O)C[C@@H](C)N(C(=O)c2ccc(Cl)c(Cl)c2)C3)cc1 (single isomer, unassigned) [Compound C319, 4-[(6R)-7-(3,4-dichlorobenzoyl)-2-{[(1*S)-2,2-dimethylcyclopentyl]amino}-6-methyl-4-oxo-5,6,7,8-tetrahydropyrido[3,4-d]pyrimidin-3(4H)-yl]-N-methylbenzamide]	23.5 µM	0.21 µM	–	–	–
CC(C)Nc1nc2c(c(=O)n1-c1ccc(C(=O)NCCN3CCOCC3)cc1)C[C@@H](C)N(C(=O)c1ccc(Cl)c(Cl)c1)C2 [Compound C203, 4-[(6R)-7-(3,4-dichlorobenzoyl)-6-methyl-4-oxo-2-[(propan-2-yl)amino]-5,6,7,8-tetrahydropyrido[3,4-d]pyrimidin-3(4H)-yl]-N-[2-(morpholin-4-yl)ethyl]benzamide]	> 50 µM	0.15 µM	–	–	–
CNC(=O)c1ccc(-n2c(NC(C)C)nc3c(c2=O)C[C@@H](C)N(C(=O)c2ccc(Cl)c(C(F)(F)F)c2)C3)c(OC)c1 [Compound C643]	–	–	> 50 µM	0.05 µM	–
CNC(=O)c1ccc(-n2c(NCc3nc(C(F)(F)F)n[nH]3)nc3c(c2=O)C[C@@H](C)N(C(=O)c2ccc(Cl)c(Cl)c2)C3)cc1 [Compound C598]	–	–	> 50 µM	> 25 µM	–
COc1ccc(CNc2nc3c(c(=O)n2-c2ccc(N4CCOCC4)cc2)CCN(C(=O)c2ccc(Cl)c(Cl)c2)C3)cc1 [Compound C128, 7-(3,4-dichlorobenzoyl)-2-{[(4-methoxyphenyl)methyl]amino}-3-[4-(morpholin-4-yl)phenyl]-5,6,7,8-tetrahydropyrido[3,4-d]pyrimidin-4(3H)-one]	> 50 µM	1.06 µM	–	–	–
CNC(=O)c1ccc(-n2c(NCC(C)c3nncn3C)nc3c(c2=O)C[C@@H](C)N(C(=O)c2ccc(Cl)c(Cl)c2)C3)cc1 (stereo partly shown) [Compound C551]	–	–	> 50 µM	> 25 µM	–
CNC(=O)c1ccc(-n2c(NCc3csc(C4CC4)n3)nc3c(c2=O)C[C@@H](C)N(C(=O)c2ccc(Cl)c(Cl)c2)C3)cc1 [Compound C490]	–	–	28.4 µM	0.89 µM	–
CNC(=O)c1cc(-n2c(N[C@@H](C)c3ccc(OC(F)(F)F)cc3)nc3c(c2=O)C[C@@H](C)N(C(=O)c2ccc(Cl)c(Cl)c2)C3)nn1C [Compound C622]	–	–	> 50 µM	0.07 µM	–
CNC(=O)c1ccc(-n2c(N[C@@H](C)C3CC3)nc3c(c2=O)C[C@@H](C)N(C(=O)c2ccc(Cl)c(C(F)F)c2)C3)cc1 [Compound C699, 4-((R)-7-(4-chloro-3-(difluoromethyl)benzoyl)-2-(((S)-1-cyclopropylethyl)amino)-6-methyl-4-oxo-5,6,7,8-tetrahydropyrido[3,4-d]pyrimidin-3(4H)-yl)-N-methylbenzamide]	–	0.04 µM	–	–	> 50 µM
CC(C)Nc1nc2c(c(=O)n1-c1ccc(S(C)(=O)=O)cc1)CCN(C(=O)c1ccc(Cl)c(Cl)n1)C2 [Compound C223, 7-(5,6-dichloropyridine-2-carbonyl)-3-[4-(methanesulfonyl)phenyl]-2-[(propan-2-yl)amino]-5,6,7,8-tetrahydropyrido[3,4-d]pyrimidin-4(3H)-one]	> 50 µM	> 10 µM	–	–	–
CC(C)Nc1nc2c(c(=O)n1-c1ccc(NC3COC3)cc1)C[C@@H](C)N(C(=O)c1ccc(Cl)c(Cl)c1)C2 [Compound C190, (6R)-7-(3,4-dichlorobenzoyl)-6-methyl-3-{4-[(oxetan-3-yl)amino]phenyl}-2-[(propan-2-yl)amino]-5,6,7,8-tetrahydropyrido[3,4-d]pyrimidin-4(3H)-one]	> 50 µM	0.18 µM	–	–	–
CNC(=O)c1ccc(-n2c(N[C@H](c3ccccc3)C3CC3)nc3c(c2=O)C[C@@H](C)N(C(=O)c2ccc(Cl)c(Cl)c2)C3)cc1 (single isomer, unassigned) [Compound C343, 4-[(6R)-2-{[(*S)-cycopropyl(phenyl)methyl]amino}-7-(3,4-dichlorobenzoyl)-6-methyl-4-oxo-5,6,7,8-tetrahydropyrido[3,4-d]pyrimidin-3(4H)-yl]-N-methylbenzamide]	13.7 µM	0.19 µM	–	–	–
CNC(=O)c1ccc(-n2c(NCc3ccc(-c4nc[nH]n4)cc3)nc3c(c2=O)C[C@@H](C)N(C(=O)c2ccc(Cl)c(Cl)c2)C3)cc1 [Compound C468]	–	–	> 50 µM	18.8 µM	–
COc1ccc(CNc2nc3c(c(=O)[nH]2)CCN(C(=O)c2ccc4occc4c2)C3)cc1 [Compound C81, 7-(1-benzofuran-5-carbonyl)-2-{[(4-methoxyphenyl)methyl]amino}-5,6,7,8-tetrahydropyrido[3,4-d]pyrimidin-4(3H)-one]	> 50 µM	4.49 µM	–	–	–
CNS(=O)(=O)c1ccc(-n2c(NC(C)C)nc3c(c2=O)C[C@@H](C)N(C(=O)c2ccc(Cl)c(Cl)c2)C3)cc1 [Compound C339, 4-[(6R)-7-(3,4-dichlorobenzoyl)-6-methyl-4-oxo-2-[(propan-2-yl)amino]-5,6,7,8-tetrahydropyrido[3,4-d]pyrimidin-3(4H)-yl]-N-methylbenzene-1-sulfonamide]	> 50 µM	0.57 µM	–	–	–
CC(=O)c1ccc(-n2c(NC(C)C)nc3c(c2=O)CCN(C(=O)c2ccc(Cl)c(Cl)c2)C3)cc1 [Compound C127, 3-(4-acetylphenyl)-7-(3,4-dichlorobenzoyl)-2-[(propan-2-yl)amino]-5,6,7,8-tetrahydropyrido[3,4-d]pyrimidin-4(3H)-one]	> 50 µM	1.28 µM	–	–	–
CNC(=O)c1ccc([C@H](C)Nc2nc3c(c(=O)n2-c2ccc(NC(C)=O)cc2)C[C@@H](C)N(C(=O)c2ccc(Cl)c(Cl)c2)C3)cc1 (single isomer, unassigned) [Compound C528b]	–	–	> 50 µM	> 10 µM	–
CNC(=O)c1cc(-n2c(NC(C)C)nc3c(c2=O)C[C@@H](C)N(C(=O)c2cccc(C(F)(F)F)c2)C3)n(C)n1 [Compound C646]	–	–	> 50 µM	1.62 µM	–
Cc1[nH]cnc1-c1ccc(-n2c(NC(C)C)nc3c(c2=O)C[C@@H](C)N(C(=O)c2ccc(Cl)c(Cl)c2)C3)cc1 [Compound C248, (6R)-7-(3,4-dichlorobenzoyl)-6-methyl-3-[4-(5-methyl-1H-imidazol-4-yl)phenyl]-2-[(propan-2-yl)amino]-5,6,7,8-tetrahydropyrido[3,4-d]pyrimidin-4(3H)-one]	31.1 µM	0.13 µM	–	–	–
CNC(=O)c1ccc(-n2c(N[C@@H](C)c3ccc(C(F)F)cc3)nc3c(c2=O)C[C@@H](C)N(C(=O)c2ccc(Cl)c(Cl)c2)C3)cc1 [Compound C609]	–	–	18.7 µM	0.08 µM	–
CCNc1nc2c(c(=O)n1-c1ccccc1OC)CCN(C(=O)c1ccc(Cl)c(Cl)c1)C2 [Compound C38, 7-(3,4-dichlorobenzoyl)-2-(ethylamino)-3-(2-methoxyphenyl)-5,6,7,8-tetrahydropyrido[3,4-d]pyrimidin-4(3H)-one]	> 50 µM	6.87 µM	–	–	–
CNC(=O)c1ccc(-n2c(NC(C)C)nc3c(c2=O)C[C@@H](C)N(C(=O)c2ccc(Cl)cc2OC)C3)cc1 [Compound C593]	–	–	> 50 µM	> 25 µM	–
CNC(=O)c1ccc(-n2c(NC(C)C)nc3c(c2=O)C[C@@H](C)N(C(=O)c2ccc(OC(F)F)c(Cl)c2)C3)cc1 [Compound C475]	–	–	> 50 µM	0.07 µM	–
CNC(=O)c1ccc(-n2c(NC(C)C)nc3c(c2=O)C[C@@H](C)N(C(=O)c2cc(F)c(Cl)cc2Cl)C3)cc1 [Compound C472]	–	–	> 50 µM	0.92 µM	–
CCC1Cc2c(nc(NC(C)C)n(-c3ccc(S(C)(=O)=O)cc3)c2=O)CN1C(=O)c1ccc(Cl)c(Cl)c1 (stereo not shown) [Compound C158, 7-(3,4-dichlorobenzoyl)-6-ethyl-3-[4-(methanesulfonyl)phenyl]-2-[(propan-2-yl)amino]-5,6,7,8-tetrahydropyrido[3,4-d]pyrimidin-4(3H)-one]	> 50 µM	1.14 µM	–	–	–
COc1ccc(CNc2nc3c(c(=O)[nH]2)C[C@H](C)N(C(=O)c2ccc(Cl)c(Cl)c2)C3)cc1 [Compound C63B, (6S)-7-(3,4-dichlorobenzoyl)-2-{[(4-methoxyphenyl)methyl]amino}-6-methyl-5,6,7,8-tetrahydropyrido[3,4-d]pyrimidin-4(3H)-one]	35.3 µM	1.63 µM	–	–	–

From patent US20230091047A1 (priority 2019, published 2023)
